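Tested at 5 concentrations; 48 h exposure; 96-well plates; endpoints linearly interpolated, else capped at highest concentration. At the TGI there is no net growth.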
How the values were obtained:
Experiment in all cases: NCI tumour cell line growth inhibition, 48 h
[1] = test system: A498 renal
[2] = test system: A549 NSCLC
[3] = test system: CAKI-1 renal
[4] = test system: CCRF-CEM leukemia
[5] = test system: COLO 205 colon
[6] = test system: DLD-1 colon
[7] = test system: DMS 114 small cell lung
[8] = test system: DMS 273 small cell lung
[9] = test system: EKVX NSCLC
[10] = test system: HCC-2998 colon
[11] = test system: HCT-116 colon
[12] = test system: HCT-15 colon
[13] = test system: HL-60(TB) leukemia
[14] = test system: HOP-18 NSCLC
[15] = test system: HOP-62 NSCLC
[16] = test system: HOP-92 NSCLC
[17] = test system: HT29 colon
[18] = test system: IGROV1 ovarian
[19] = test system: K-562 leukemia
[20] = test system: KM12 colon
[21] = test system: KM20L2 colon
[22] = test system: LOX IMVI melanoma
[23] = test system: M19-MEL melanoma
[24] = test system: MALME-3M melanoma
[25] = test system: MCF7 breast
[26] = test system: MOLT-4 leukemia
[27] = test system: NCI-H226 lung
[28] = test system: NCI-H23 lung
[29] = test system: NCI-H460 lung
[30] = test system: NCI-H522 lung
[31] = test system: NCI/ADR-RES ovarian
[32] = test system: OVCAR-3 ovarian
[33] = test system: OVCAR-4 ovarian
[34] = test system: OVCAR-5 ovarian
[35] = test system: OVCAR-8 ovarian
[36] = test system: P388 leukemia
[37] = test system: P388/ADR leukemia
[38] = test system: RPMI-8226 leukemia
[39] = test system: RXF 393 renal
[40] = test system: SF-268 CNS
[41] = test system: SF-295 CNS
[42] = test system: SF-539 CNS
[43] = test system: SK-MEL-2 melanoma
[44] = test system: SK-MEL-28 melanoma
[45] = test system: SK-MEL-5 melanoma
[46] = test system: SK-OV-3 ovarian
[47] = test system: SN12C renal
[48] = test system: SN12K1 renal
[49] = test system: SNB-19 CNS
[50] = test system: SNB-75 CNS
[51] = test system: SNB-78 CNS
[52] = test system: SW-620 colon
[53] = test system: U251 CNS
[54] = test system: UACC-257 melanoma
[55] = test system: UACC-62 melanoma
[56] = test system: UO-31 renal
[57] = test system: XF 498 CNS

Measured: TGI

CC(O)C(O)C(N)CC=O (centres undefined)
> 414 µM: [57]
> 185 µM: [52]
> 50 µM: [1]
> 500 µM: all other assays above

COC(=O)C1=CC[C@@H]2C(C(=O)O)=CO[C@@H](OC3OC(CO)C(O)C(O)C3O)[C@H]12 (some centres undefined)
> 288 µM: [45]
> 127 µM: [16]
> 189 µM: [6]
> 178 µM: [51]
> 193 µM: [41]
> 139 µM: [37]
> 30 µM: [1]
> 119 µM: [4]
> 131 µM: [25]
> 300 µM: all other assays above

Source: PubChem BioAssay (NCI)
